The source of these data is the NIST ThermoML archive (doi:10.1016/j.jct.2006.06.005).

For the data set the following is noted: 101 kPa, Liquid.

Numbers after ± are expanded uncertainties.

On to `C1CCCCC1` [cyclohexane], for which the mass density (in general, mass per unit of volume) (303.15 K) is given as 769.1 ± 0.97 kg/m3; the mass density (313.15 K) is 759.6 ± 1 kg/m3; the mass density (323.15 K) was 749.98 ± 1 kg/m3; the mass density (333.15 K) turned out to be 740.23 ± 1.1 kg/m3. For the same molecule, the viscosity (usually the internal friction of a fluid under shear) is, setting by setting: (303.15 K) 0.821 ± 0.021 mPa·s; (313.15 K) 0.696 ± 0.018 mPa·s; (323.15 K) 0.598 ± 0.016 mPa·s; (333.15 K) 0.52 ± 0.014 mPa·s.
`Cc1ccccc1` [toluene]: the mass density by setting is: (303.15 K) 858.32 ± 0.76 kg/m3; (313.15 K) 848.92 ± 0.79 kg/m3; (323.15 K) 839.45 ± 0.82 kg/m3; (333.15 K) 829.93 ± 0.85 kg/m3; (343.15 K) 820.3 ± 0.88 kg/m3; (353.15 K) 810.54 ± 0.91 kg/m3. In addition, the viscosity reads like this: (303.15 K) 0.525 ± 0.015 mPa·s; (313.15 K) 0.47 ± 0.014 mPa·s; (323.15 K) 0.423 ± 0.013 mPa·s; (333.15 K) 0.385 ± 0.012 mPa·s; (343.15 K) 0.35 ± 0.012 mPa·s; (353.15 K) 0.323 ± 0.011 mPa·s.
